Experiments:
[1] = system: diploidem Roggen Voskhod 2; test: Field test of gametocidal activity, diploid rye Voskhod 2; assay type: in vivo; conditions: period V, 1% aqueous emulsion, 10 kg/ha in 1000 l water
Source text: (§1) Die gametozide Aktivität der erfindungsgemäßen Sterilisationsmittel war in Feldversuchen in verschiedenen bodenklimatischen Zonen mit Teilstücken von 10 m^2 Größe in dreibis viermaliger Wiederholung festgestellt. Jedes Sterilisationsmittel wurde mindenstens 5 Jahre lang geprüft.
(§2) Die Entwicklung der Perioden der Organogenese wird zytologisch überwacht. Die Behandlung von Pflanzen mit dem Sterilisationsmittel erfolgt am Anfang der fünften Periode der Organogenese nach Kupermann.
(§3) Mit dem Ährenschieben verwirklicht man die Isolierung von Hauptähren und anderen Stockwerken in Pergametbeuteln. Bei Weizen und Tritikale werden Einzelisolatoren benutzt. Bei Roggen schließt man je 1 Ähre von […] verschiedenen nebeneinander befindlichen Pflanzen unter einen gemeinsamen Isolator ein. Bei Hirse wird jede Rispe getrennt isoliert. Der Sterilitätsprozentsatz (X) für Weizen, Roggen, Tritikale und Hirse wird nach der Formel [formula] ermittelt.
(§4) Die Kornzahl in nicht isolierten Ähren von Kontrollpflanzen wird bedingt für 100 % Ansetzen bei freier Bestäubung angenommen.
(§5) Um zuverlässige Angaben zu erhalten, verwendet man 20 bis 25 Isolatoren je Wiederholung für Weizen und Tritikale, 10 bis 15 Isolatoren jeder Wiederholung für Roggen und Hirse.
Pflanzen von diploidem Roggen Voskhod 2 werden in der V. Periode der Organogenese mit einer 1%igen wäßrigen Emulsion von 1,1,3-Tribrompropan, 1,1,3-Tribrom-4-chlorbutan bzw. 1,1,2,3-Tetrabrompropan behandelt. Die Emulsion enthält 0,5 Masse% C12-C14-Kalziumalkylbenzolsulfonat und 0,01 Masse% Dimethylformamid. Der Verbrauch an Präparat beträgt 10 kg/ha bei 1000 1 Wasserdurchsatz. Die Prüfergebnisse sind in der Tabelle 14 angegeben. Die gleichen Ergebnisse sind bei der Behandlung von diploidem Roggen Voskhod 2 in der VI. Periode der Organogenese erhalten..

[2] = system: Winterweizens Sorte Mironowskaya 808; test: Field test of gametocidal activity (anther sterilisation), winter wheat Mironowskaya 808; assay type: in vivo, Weizen; conditions: read-out: Prozentsatz der Sterilität %
[3] = system: Tritikale Ampfindiploid 206; test: Field test of gametocidal activity, triticale Amphidiploid 206; assay type: in vivo; conditions: period V, 1% aqueous emulsion, 6 kg/ha in 600 l water; for Prozentsatz des Ansetzens von Samen bei freier Bestäubung: control = 100
Source text: as §1, §2, §3, §4, §5
Pflanzen von Tritikale Ampfindiploid 206 werden in der V.Periode der Organogenese (nach Kupermann) mit einer 1%igen wäßrigen Emulsion von 1,1,3-Tribrompropan bzw. 1,2-Dibromheptan behandelt. Die Emulsion enthält 0,5 Masse% C12-C14--Kalziumalkylbenzolsulfonat und 0,01 Masse% Dimethylformamid. Der Verbrauch an Präparat beträgt 6 kg/ha bei 600 1 Wasserdurchsatz. Die Prüfergebnisse sind in der Tabelle 6 angegeben.
Die gleichen Ergebnisse sind bei der Behandlung von Tritikale Amphidiploid 206 in der VI. Periode der Organogenese erhalten.

[4] = Toxicity in animal test (LD50); parameters: species or system Mäuse; conditions: in vivo, mice stated only for 1,1,3-Tribrompropan, species not given for the others
Source text: Alle erfindungsgemäßen Polybromalkane, die als Sterilisationsmittel zur Verwendung kommen, waren auf die Toxizität im Tierversuch geprüft. Die Prüfergebnisse haben ergeben, daß die angegebenen Verbindungen von schwacher oder mittlerer Toxizität sind.

[5] = system: tetraploidem Roggen Ukrainskaya tetra; test: Field test of gametocidal activity, tetraploid rye Ukrainskaya tetra; assay type: in vivo; conditions: period V, 1% aqueous emulsion, 6 kg/ha in 600 l water; for Prozentsatz des Ansetzens von Samen bei freier Bestäubung: control = 100
Source text: as §1, §2, §3, §4, §5
Pflanzen von tetraploidem Roggen Ukrainskaya tetra werden in der V.Periode der Organogenese (nach Kupermann) mit einer 1%igen wäßrigen Emulsion von 1,2,3-Tribrompropan, 1,2-Dibrompropan bzw. 1,2-Dibrom-3-chlorpropan behandelt. Die Emulsion enthält 0,5 Masse% C12-C14-Kalzium- alkylbenzolsulfonat und 0,01 Masse% Tetrahydrofuran. Der Verbrauch an Präparat beträgt 6 kg/ha bei 600 1 Wasserdurchsatz. Als Kontrolle dienen Pflanzen, behandelt mit dem Verdünner ohne Sterilisationsmittel. Die Prüfergebnisse sind in der Tabelle 8 angegeben. Die gleichen Ergebnisse sind bei der Behandlung von tetraploidem Roggen Ukrainskaya in der VI. Periode der Organogenese erhalten.

[6] = system: tetraploidem Roggen Jubileinaya; test: Field test of gametocidal activity, tetraploid rye Jubileinaya; assay type: in vivo; conditions: period V, 1% aqueous emulsion, 8 kg/ha in 800 l water; for Prozentsatz des Ansetzens Samen bei freier Bestäubung: control = 100
Source text: as §1, §2, §3, §4, §5
Pflanzen von tetraploidem Roggen Jubileinaya werden in der V. Periode der Organogenese mit einer 1%igen wäßrigen Emulsion von 1,2,3-Tribrompropan, 1,2-Dibrompropan bzw. 1,2-Dibrom-3-chlorpropan behandelt. Die Emulsion enthält 0,5 Masse% C12-C14-Kalziumalkylbenzolsulfonat und 0,01 Masse% Dodezylsulfat. Der Verbrauch an Präparat beträgt 8 kg/ha bei 800 1 Wasserdurchsatz. Die Prüfergebnisse sind in der Tabelle 9 angegeben. Die gleichen Ergebnisse sind bei der Behandlung von tetraploidem Roggen Jubileinaya in der VI. Periode der Organogenese erhalten.

[7] = workplace air limit; cited from earlier work
[8] = system: Sommerweizens Sorte Botanicheskaya 4; test: Field test of gametocidal activity, spring wheat Botanicheskaya 4; assay type: in vivo, Weizen; conditions: period V, 1% aqueous emulsion, 6 kg/ha in 600 l water; for Prozentsatz des Ansetzens von Samen bei freier Bestäubung: control = 100
Source text: as §1, §2, §3, §4, §5
Pflanzen des Sommerweizens Sorte Botanicheskaya 4 werden in der V. Periode der Organogenese (nach Kupermann) mit einer 1%igen wäßrigen Emulsion von 1,3-Dibrompropan, 1,1,1,3-Tetrabromheptan, 1,1,2-Tribromheptan bzw. 1,2--Dibromheptan behandelt. Die Emulsion enthält 0,5 Masse% C12-C14-Kalziumalkylbenzolsulfonat und 0,01 Masse% Dimethylsulfoxid als Adjuvans. Der Verbrauch an Präparat beträgt 6 kg/ha bei 600 1 Wasserdurchsatz. Als Kontrolle dienen Pflanzen, behandelt mit dem Verdünner ohne Sterilisationsmittel.
Die Prüfergebnisse sind in der Tabelle 4 angegeben. Die gleichen Ergebnisse sind bei der Behandlung des Sommerweizens Sorte Botanicheskaya 4 in der VI. Periode der Organogenese erhalten.

[9] = system: Sommerweizens Sorte Rodina; test: Field test of gametocidal activity, spring wheat Rodina; assay type: in vivo, Weizen; conditions: period V, 1% aqueous emulsion, 6 kg/ha in 600 l water; for Prozentsatz des Ansetzens von freier Bestäubung: control = 100
Source text: as §1, §2, §3, §4, §5
Pflanzen des Sommerweizens Sorte Rodina werden in der V.Periode der Organogenese (nach Kupermann) mit einer l%igen wäßrigen Emulsion von 1,3-Dibrompropan, 1,1,1,3-Tetrabromheptan, 1,1,3-Tribromheptan bzw. 1,2-Dibromheptan behandelt. Die Emulsion enthalt 0,5 Masse% C12-C14 Kalziumalk^ylbenzol- sulfonat und 0,01 Masse% Dodezylsulfat. Der Verbrauch an Präparat beträgt 6 Kg/ha bei 600 1 Wasserdurchsatz. Als Kontrolle dienen Pflanzen, behandelt mit dem Verdünner ohne Sterilisationsmittel.
Die Prüfergebnisse sind in der Tabelle 3 angegeben. Die gleichen Ergebnisse sind bei der Behandlung des Sommerweizens Sorte Rodina in der VI. Periode der Organogenese erhalten.

| Compound | Kornzahl der Ähre bei freier Bestäubung [5] | Kornzahl der Ähre unter Isolator [5] | Prozentsatz der Sterilität [5] | Prozentsatz des Ansetzens von Samen bei freier Bestäubung [5] | Kornzahl der Ähre bei freier Bestäubung [6] | Kornzahl der Ähre unter Isolator [6] | Prozentsatz der Sterilität [6] | Prozentsatz des Ansetzens Samen bei freier Bestäubung [6] | Kornzahl der Ähre bei freier Bestäubung [9] | Kornzahl der Ähre im Isolator [9] | Prozentsatz der Sterilität [9] | Prozentsatz des Ansetzens von freier Bestäubung [9] | further results |
| --- | --- | --- | --- | --- | --- | --- | --- | --- | --- | --- | --- | --- | --- |
| BrCCC(Br)Br [Beispiel 1, 1,1,3-Tribrompropan] |  |  |  |  |  |  |  |  |  |  |  |  | Kornzahl der Ähre bei freier Bestäubung [1]: 48,6; Kornzahl der Ähre unter Isolator [1]: 0,9; Prozentsatz der Sterilität [1]: 98,2%; Prozentsatz des Ansetzens von Samen bei freier Bestäubung ([1]; control = 100): 89,0%; pest or weed control at 1 %, 20000 g/ha [2]: 98%; Kornzahl der Ähre bei freier Bestäubung [3]: 30,1; Kornzahl der Ähre im Isolator [3]: 0,0; Prozentsatz der Sterilität [3]: 100,0%; Prozentsatz des Ansetzens von Samen bei freier Bestäubung [3]: 82,2%; LD50 [4]: 540 mg/kg |
| BrCC(Br)CBr [Beispiel 4, 1,2,3-Tribrompropan] | 48,6 | 0,0 | 100,0% | 94,2% | 47,6 | 0,1 | 99,8% | 90,3% |  |  |  |  |  |
| CC(Br)CBr (stereo not drawn) [Beispiel 5, 1,2-Dibrompropan] | 47,5 | 0,3 | 99,4% | 92,1% | 48,1 | 0,0 | 100,0% | 91,2% |  |  |  |  | maximale Arbeitsplatzkonzentration (MAK-Wert) [7]: 5 mg/m^3 |
| ClCC(Br)CBr (stereo not drawn) [Beispiel 7, 1,2-Dibrom-3-chlorpropan] | 45,8 | 0,6 | 98,8% | 88,7% | 50,2 | 0,4 | 99,2% | 95,2% |  |  |  |  | LD50 [4]: ~170 mg/kg |
| CCCCC(Br)CC(Br)(Br)Br (stereo not drawn) [Beispiel 9, 1,1,1,3-Tetrabromheptan] |  |  |  |  |  |  |  |  | 35,4 | 0,0 | 100,0% | 87,6% | Kornzahl der Ähre bei freier Bestäubung [8]: 28,1; Kornzahl der Ähre im Isolator [8]: 0,0; Prozentsatz der Sterilität [8]: 100,0%; Prozentsatz des Ansetzens von Samen bei freier Bestäubung [8]: 90,9% |
| CCCCC(Br)CC(Br)Br (stereo not drawn) [Beispiel 10, 1,1,3-Tribromheptan] |  |  |  |  |  |  |  |  | 33,8 | 0,0 | 100,0% | 83,7% |  |
| CCCCCC(Br)CBr (stereo not drawn) [Beispiel 11, 1,2-Dibromheptan] |  |  |  |  |  |  |  |  | 32,7 | 0,0 | 100,0% | 80,9% | Kornzahl der Ähre bei freier Bestäubung [8]: 23,6; Kornzahl der Ähre im Isolator [8]: 0,0; Prozentsatz der Sterilität [8]: 100,0%; Prozentsatz des Ansetzens von Samen bei freier Bestäubung [8]: 76,4%; Kornzahl der Ähre bei freier Bestäubung [3]: 29,2; Kornzahl der Ähre im Isolator [3]: 0,0; Prozentsatz der Sterilität [3]: 100,0%; Prozentsatz des Ansetzens von Samen bei freier Bestäubung [3]: 79,8% |

— patent EP0358766A1, “METHOD OF STERILIZING PLANT ANTHERS” (VSESOJUZNY NAUCHNO-ISSLEDOVATELSKY INST. SELSKOKHOZYAISTV. …, priority 1988, dated 1989)
